Reference: BigSolDB 2.1

O=c1ccc2ccccc2o1
solubility (mole fraction)
Settings	278.15 K	283.15 K	288.15 K	293.15 K	298.15 K	303.15 K	308.15 K	313.15 K	318.15 K
in cyclohexane	–	0.00162	0.00236	0.00321	0.00428	0.00607	0.00824	0.0111	0.0144
in ethanol	0.0071	0.011	0.0205	0.0331	0.0533	0.0869	0.138	0.222	0.357
in isopropanol	0.00371	0.00604	0.0108	0.0204	0.0351	0.0604	0.101	0.171	0.282
in methanol	0.012	0.0182	0.0303	0.05	0.0802	0.122	0.199	0.32	0.484
in n-hexane	0.000862	0.00118	0.00169	0.0024	0.00319	0.00421	0.00574	0.00746	0.00962
in n-propanol	0.00521	0.00952	0.0172	0.0282	0.0469	0.0781	0.124	0.202	0.33
